Assays:
[1] = biological target: T1, 5-hydroxytryptamine receptor 1A (Homo sapiens) (UniProt P08908); experiment: Agonist activity at human cloned 5HT1A receptor expressed in human HeLa cells assessed as stimulation of [35S]GTPgammaS binding after 20 mins by liquid scintillation counting relative to maximal 5HT response; type: functional, cell-based
T1 sequence (whole entry): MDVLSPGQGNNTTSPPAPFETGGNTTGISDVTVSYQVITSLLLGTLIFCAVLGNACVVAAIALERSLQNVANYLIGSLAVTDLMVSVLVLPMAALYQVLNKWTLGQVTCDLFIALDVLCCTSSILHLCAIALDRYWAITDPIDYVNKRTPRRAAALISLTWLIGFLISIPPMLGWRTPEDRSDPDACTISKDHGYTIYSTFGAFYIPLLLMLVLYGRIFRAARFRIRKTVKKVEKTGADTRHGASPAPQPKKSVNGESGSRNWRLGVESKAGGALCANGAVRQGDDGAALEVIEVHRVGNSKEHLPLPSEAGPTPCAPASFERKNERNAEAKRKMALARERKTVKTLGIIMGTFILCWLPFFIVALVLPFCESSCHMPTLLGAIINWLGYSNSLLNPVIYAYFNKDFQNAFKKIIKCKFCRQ

[2] = biological target: T1, 5-hydroxytryptamine receptor 1A (Homo sapiens); experiment: Agonist activity at human cloned 5HT1A receptor expressed in human HeLa cells assessed as stimulation of [35S]GTPgammaS binding after 20 mins by liquid scintillation counting; type: functional, cell-based
[3] = Selectivity for adrenergic alpha1 receptor over 5HT1A receptor
Rattus norvegicus [4] = species on record: Rattus norvegicus; experiment: Selectivity for adrenergic Alpha-1B receptor in Wistar rat spleen over adrenergic alpha1D receptor in Wistar rat thoracic aorta; type: tissue-based
Rattus norvegicus [5] = species on record: Rattus norvegicus; experiment: Selectivity for adrenergic Alpha-1B receptor in Wistar rat spleen over adrenergic alpha1A receptor in Wistar rat prostatic vas deferens; type: tissue-based
[6] = biological target: T2, 5-hydroxytryptamine receptor 1A (Homo sapiens, UniProt P08908); experiment: Binding affinity to 5HT1A receptor
T2 sequence (P08908 whole entry): T1 sequence (whole entry)

[7] = biological target: T2, 5-hydroxytryptamine receptor 1A
[8] = biological target: T3, Alpha-1B adrenergic receptor (Homo sapiens, UniProt P35368)
T3 sequence (P35368 whole entry): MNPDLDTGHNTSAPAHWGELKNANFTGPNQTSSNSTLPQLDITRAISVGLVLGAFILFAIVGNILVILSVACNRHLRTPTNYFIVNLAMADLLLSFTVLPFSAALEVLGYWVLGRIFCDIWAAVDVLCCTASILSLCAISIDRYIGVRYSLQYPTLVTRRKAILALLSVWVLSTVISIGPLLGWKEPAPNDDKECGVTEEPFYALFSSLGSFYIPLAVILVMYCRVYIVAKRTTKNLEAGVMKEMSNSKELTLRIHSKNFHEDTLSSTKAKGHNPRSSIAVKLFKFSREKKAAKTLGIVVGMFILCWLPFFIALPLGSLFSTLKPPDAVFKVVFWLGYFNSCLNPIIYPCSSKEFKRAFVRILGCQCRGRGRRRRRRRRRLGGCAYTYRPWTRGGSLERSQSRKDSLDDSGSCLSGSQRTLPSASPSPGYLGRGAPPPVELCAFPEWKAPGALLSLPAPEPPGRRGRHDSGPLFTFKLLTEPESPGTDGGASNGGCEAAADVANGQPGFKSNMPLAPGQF
Description: Displacement [3H]prazosin of human recombinant Alpha-1B adrenergic receptor expressed in CHO cells by rapid filtration technique

[9] = biological target: T1, 5-hydroxytryptamine receptor 1A (Homo sapiens); conditions: HeLa

SMILES | Emax [1] [%] | pD2 [2] | Selectivity ratio [3] | Selectivity ratio (Rattus norvegicus [4]) | Selectivity ratio (Rattus norvegicus [5]) | Ki [6] [nM] | Ki [7] [nM] | Ki [8] [nM] | pKb [9]
COc1ccccc1N1CCN(CC2OCC(c3ccccc3)(c3ccccc3)O2)CC1 (configuration not stated) | 16 | 8.3 | 100 | 28 | 36 | 15.1 | 22.9 | 6.76 | 
COc1ccccc1N1CCN(C[C@H]2CO[C@@](CN3CCCCC3=O)(c3ccccc3)O2)CC1 |  |  |  | 0.06 | 0.3 |  | 5.25 | 129 | 7.38
COc1ccccc1N1CCN(C[C@@H]2CO[C@@](CN3C(=O)CC4(CCCC4)CC3=O)(c3ccccc3)O2)CC1 (relative stereo) | 60 | 7.98 |  | 11 | 0.7 |  | 1.26 | 10 | 
COc1ccccc1N1CCN(C[C@H]2CO[C@](CN3CCCC3=O)(c3ccccc3)O2)CC1 (relative stereo) |  |  |  | 0.03 | 0.5 |  | 6.92 | 174 | 7.16
COc1ccccc1N1CCN(C[C@@H]2CO[C@](CN3CCCC3=O)(c3ccccc3)O2)CC1 (relative stereo) | 34 | 7.14 |  | 0.1 | 0.2 |  | 11.2 | 70.8 | 
COc1ccccc1N1CCN(C[C@@H]2CO[C@@](CN3CCCCC3=O)(c3ccccc3)O2)CC1 (relative stereo) |  |  |  | 0.1 | 0.1 |  | 5.13 | 51.3 | 7.39
COc1ccccc1N1CCN(C[C@H]2CO[C@@](CN3CCCCCC3=O)(c3ccccc3)O2)CC1 (relative stereo) |  |  |  | 0.1 | 4 |  | 5.62 | 72.4 | 7.25
COc1ccccc1N1CCN(C[C@@H]2CO[C@@](CN3CCCCCC3=O)(c3ccccc3)O2)CC1 (relative stereo) | 39 | 6.57 |  | 0.5 | 0.1 |  | 7.24 | 18.2 | 
COc1ccccc1N1CCN(C[C@H]2CO[C@@](CN3C(=O)CCC3=O)(c3ccccc3)O2)CC1 (relative stereo) | 45 | 7.05 |  | 0.2 | 3 |  | 5.13 | 85.1 | 
COc1ccccc1N1CCN(C[C@@H]2CO[C@@](CN3C(=O)CCC3=O)(c3ccccc3)O2)CC1 (relative stereo) |  |  |  | 5 | 2 |  | 25.7 | 224 | 
COc1ccccc1N1CCN(C[C@H]2CO[C@@](CN3C(=O)CCCC3=O)(c3ccccc3)O2)CC1 (relative stereo) | 34 | 7.23 |  | 0.1 | 1 |  | 3.16 | 46.8 | 
COc1ccccc1N1CCN(C[C@@H]2CO[C@@](CN3C(=O)CCCC3=O)(c3ccccc3)O2)CC1 (relative stereo) |  |  |  | 2 | 1 |  | 44.7 | 132 | 
COc1ccccc1N1CCN(C[C@H]2CO[C@@](CN3C(=O)CC4(CCCC4)CC3=O)(c3ccccc3)O2)CC1 (relative stereo) | 49 | 7.8 |  | 0.2 | 3 |  | 2.63 | 9.33 | 
